Data as given in patent US9718804B2, “GSK-3 inhibitors” (BRISTOL-MYERS SQUIBB COMPANY, priority 2013, dated 2017).
Where two headings read alike, the source gives them in different places.

Assays:
GSK3α = GSK3α (Homo sapiens, UniProt P49840); assay: GSK3α kinase assay (Caliper LabChip, fluoresceinated peptide substrate); format: biochemical
Experimental: (§1) The kinase assay was performed in V-bottom 384-well plates. […] The reaction was incubated at room temperature for 20 hours and terminated by adding 45 μl of 35 mM EDTA to each sample. The reaction mixture was analyzed on the Caliper LabChip3000 (Caliper, Hopkinton, Mass.) by electrophoretic separation of the unphosphorylated substrate and phosphorylated product. […] Compounds were dissolved at 10 mM in dimethylsulfoxide (DMSO) and evaluated at eleven concentrations. IC50 values were derived by non-linear regression analysis.

pTau = pTau assay (no method described); format: cell-based
GSK3β = GSK3β (Homo sapiens, UniProt P49841); assay: GSK3β kinase assay (Caliper LabChip, fluoresceinated peptide substrate); format: biochemical
Experimental: as §1

[1] = first value of the cell, 250 pM enzyme, 20 uM ATP, 20 hours at room temperature, read-out: GSK3β/α (nM): GSK3β IC50

GSK3β, sequence (P49841 whole entry, species assumed): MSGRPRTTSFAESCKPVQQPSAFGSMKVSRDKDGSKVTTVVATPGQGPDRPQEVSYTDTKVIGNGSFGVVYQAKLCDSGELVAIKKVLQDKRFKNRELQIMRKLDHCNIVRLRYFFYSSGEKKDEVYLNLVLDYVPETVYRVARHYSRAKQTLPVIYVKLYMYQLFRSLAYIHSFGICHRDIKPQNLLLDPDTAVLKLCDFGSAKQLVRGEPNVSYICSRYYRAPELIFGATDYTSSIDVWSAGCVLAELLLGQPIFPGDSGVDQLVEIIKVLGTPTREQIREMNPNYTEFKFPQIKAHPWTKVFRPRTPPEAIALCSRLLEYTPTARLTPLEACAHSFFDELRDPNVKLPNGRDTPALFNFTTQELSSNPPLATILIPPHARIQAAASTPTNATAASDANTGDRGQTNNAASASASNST
GSK3α, sequence (P49840 whole entry, species assumed): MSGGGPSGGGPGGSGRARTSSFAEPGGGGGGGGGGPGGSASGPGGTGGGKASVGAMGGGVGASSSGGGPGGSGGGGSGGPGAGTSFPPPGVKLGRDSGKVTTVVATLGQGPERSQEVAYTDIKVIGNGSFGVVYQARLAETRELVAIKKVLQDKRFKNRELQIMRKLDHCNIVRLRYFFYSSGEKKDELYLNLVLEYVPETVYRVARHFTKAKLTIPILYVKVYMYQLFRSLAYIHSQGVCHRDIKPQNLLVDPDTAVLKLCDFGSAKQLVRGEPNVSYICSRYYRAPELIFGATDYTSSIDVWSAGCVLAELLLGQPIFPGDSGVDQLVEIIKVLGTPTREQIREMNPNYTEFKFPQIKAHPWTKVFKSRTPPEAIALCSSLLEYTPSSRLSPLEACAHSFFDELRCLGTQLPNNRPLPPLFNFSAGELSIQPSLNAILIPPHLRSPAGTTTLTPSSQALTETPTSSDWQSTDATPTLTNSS

SMILES	IC50 (GSK3α) [nM]	IC50 (pTau) [nM]	IC50 (GSK3β; [1]) [nM]	IC50 (GSK3α; second value of the cell, 250 pM enzyme, 20 uM ATP, 20 hours at room temperature, read-out: GSK3β/α (nM): GSK3α IC50) [nM]	IC50 (GSK3β) [nM]
O=C(Nc1cncc(-c2cc(F)ccc2F)c1)c1ccnc(Nc2ccc(C(F)(F)F)cn2)c1 [Example 129, N-(5-(2,5-Difluorophenyl)pyridin-3-yl)-2-((5-(trifluoromethyl)pyridin-2-yl)amino)isonicotinamide]	9.8	2100	18		
CC(C)C(O)c1cc(Cl)ncc1NC(=O)c1ccnc(Nc2ccc(C(F)(F)F)cn2)c1 (stereo not shown) [Example 103, N-(6-Chloro-4-(1-hydroxy-2-methylpropyl)pyridin-3-yl)-2-((5-(trifluoromethyl)pyridin-2-yl)amino)isonicotinamide]	3.9	540	6.7		
CC(=O)c1ccc(Nc2cc(C(=O)Nc3cncc(-c4ccccc4F)c3)ccn2)nc1 [Example 158, 2-((5-Acetylpyridin-2-yl)amino)-N-(5-(2-fluorophenyl)pyridin-3-yl)isonicotinamide]	3	690	6		
O=C(Nc1cnc(Cl)cc1N1CCC(F)(F)CC1)c1ccnc(Nc2ccc(C(F)(F)F)cn2)c1 [Example 70, N-(6-Chloro-4-(4,4-difluoropiperidin-1-yl)pyridin-3-yl)-2-((5-(trifluoromethyl)pyridin-2-yl)amino)isonicotinamide]	2.6	564	7.6		
CC(C)C1(c2cc(Cl)ncc2NC(=O)c2ccnc(Nc3ccc(C(F)(F)F)cn3)c2)OCCO1 [Example 83, N-(6-Chloro-4-(2-isopropyl-1,3-dioxolan-2-yl)pyridin-3-yl)-2-((5-(trifluoromethyl)pyridin-2-yl)amino)isonicotinamide]	0.55	57	1.1		
N#CC1(c2ccc(Nc3cc(C(=O)Nc4cncc(-c5ccccc5F)c4)ccn3)nc2)CC1 [Example 163, 2-((5-(1-Cyanocyclopropyl)pyridin-2-yl)amino)-N-(5-(2-fluorophenyl)pyridin-3-yl)isonicotinamide]	1.1	610	3.2		
O=C(Nc1cncc(-c2cccc(F)c2F)c1)c1ccnc(Nc2ccc(C(F)(F)F)cn2)c1 [Example 130, N-(5-(2,3-Difluorophenyl)pyridin-3-yl)-2-((5-(trifluoromethyl)pyridin-2-yl)amino)isonicotinamide]	20	2600	42		
Cc1ccncc1NC(=O)c1ccnc(Nc2ccc(C#N)cn2)c1 [Example 26, 2-((5-Cyanopyridin-2-yl)amino)-N-(4-methylpyridin-3-yl)isonicotinamide]		670		8.2	14
N#Cc1cccc(Nc2cc(C(=O)Nc3cncc(-c4ccc(C#N)c(F)c4)c3)ccn2)n1 [Example 165, N-(5-(4-Cyano-3-fluorophenyl)pyridin-3-yl)-2-((6-cyanopyridin-2-yl)amino)isonicotinamide]	0.4	84	1.2		
Cn1ncc(NC(=O)c2ccnc(Nc3ccc(C(F)(F)F)cn3)c2)c1C(C)(O)C1CC1 (stereo not shown) [Example 209, N-(5-(1-Cyclopropyl-1-hydroxyethyl)-1-methyl-1H-pyrazol-4-yl)-2-((5-(trifluoromethyl)pyridin-2-yl)amino)isonicotinamide]	0.21	21	0.3		
CC1(C)CN(c2ccncc2NC(=O)c2ccnc(Nc3ccc(C#N)cn3)c2)CCO1 [Example 28, 2-((5-Cyanopyridin-2-yl)amino)-N-(4-(2,2-dimethylmorpholino)pyridin-3-yl)isonicotinamide]	0.37	16	0.55		
Cc1ccnc(Nc2cc(C(=O)Nc3cnccc3-c3ccccc3)ccn2)c1 [Example 6, 2-((4-Methylpyridin-2-yl)amino)-N-(4-phenylpyridin-3-yl)isonicotinamide]	1.3	164	1.1		
N#Cc1ccc(Nc2cc(C(=O)Nc3cnccc3-c3ccc(F)cc3F)ccn2)nc1 [Example 57, 2-((5-Cyanopyridin-2-yl)amino)-N-(4-(2,4-difluorophenyl)pyridin-3-yl)isonicotinamide]	0.59	19	1.3		
N#Cc1cccc(Nc2cc(C(=O)Nc3cncc(-c4cccc(F)c4C#N)c3)ccn2)n1 [Example 166, N-(5-(2-Cyano-3-fluorophenyl)pyridin-3-yl)-2-((6-cyanopyridin-2-yl)amino)isonicotinamide]	0.28	390	0.91		
N#Cc1ccc(Nc2cc(C(=O)Nc3cnccc3OCC(F)(F)F)ccn2)nc1 [Example 29, 2-((5-Cyanopyridin-2-yl)amino)-N-(4-(2,2,2-trifluoroethoxy)pyridin-3-yl)isonicotinamide]	0.62	16	0.69		
COc1cccc(Nc2cc(C(=O)Nc3cncc(-c4ccccc4F)c3)ccn2)n1 [Example 139, N-(5-(2-Fluorophenyl)pyridin-3-yl)-2-((6-methoxylpyridin-2-yl)amino)isonicotinamide]	3.2	1300	5.4		

SMILES	IC50 (GSK3α) [nM]	IC50 (pTau) [nM]	IC50 (GSK3β; [1]) [nM]	IC50 (GSK3α; second value of the cell, 250 pM enzyme, 20 uM ATP, 20 hours at room temperature, read-out: GSK3β/α (nM): GSK3α IC50) [nM]	IC50 (GSK3β) [nM]
O=C(Nc1cnsc1-c1ccccc1)c1ccnc(Nc2ccc(C(F)(F)F)cn2)c1 [Example 204, N-(5-Phenylisothiazol-4-yl)-2-((5-(trifluoromethyl)pyridin-2-yl)amino)isonicotinamide]	1.7	300	3		
O=C(Nc1cnncc1C1(CCCCl)OCCO1)c1ccnc(Nc2ccc(C(F)(F)F)cn2)c1 [Example 201, N-(5-(2-(3-Chloropropyl)-1,3-dioxolan-2-yl)pyridazin-4-yl)-2-((5-(trifluoromethyl)pyridin-2-yl)amino)isonicotinamide]	0.4	28	0.19		
N#Cc1ccc(Nc2cc(C(=O)Nc3cncc4ccccc34)ccn2)nc1 [Example 65, 2-((5-Cyanopyridin-2-yl)amino)-N-(isoquinolin-4-yl)isonicotinamide]	3.2	420	8.5		
O=C(Nc1cnc2cccnn12)c1ccnc(Nc2ccc(C(F)(F)F)cn2)c1 [Example 210, N-(Imidazo[1,2-b]pyridazin-3-yl)-2-((5-(trifluoromethyl)pyridin-2-yl)amino)isonicotinamide]	11	2300	33		
O=C(Nc1cnccc1C1(O)CCCCC1)c1ccnc(Nc2ccc(C(F)(F)F)cn2)c1 [Example 38, N-(4-(1-Hydroxycyclohexyl)pyridin-3-yl)-2-((5-(trifluoromethyl)pyridin-2-yl)amino)isonicotinamide]	0.71	8.8	1.1		
O=C(Nc1cnccc1-c1ccc(Cl)cc1)c1ccnc(Nc2ccc(Cl)cn2)c1 [Example 60, N-(4-(4-Chlorophenyl)pyridin-3-yl)-2-((5-chloropyridin-2-yl)amino)isonicotinamide]	1.2	270	2.7		
O=C(Nc1cnncc1-c1ccccc1)c1ccnc(Nc2ccc(C(F)(F)F)cn2)c1 [Example 198, N-(5-Phenylpyridazin-4-yl)-2-((5-(trifluoromethyl)pyridin-2-yl)amino)isonicotinamide]	2.9	180	6.7		
O=C(Nc1cncc(-c2ccccc2F)c1)c1ccnc(Nc2ccc(S(=O)(=O)N3CCCCC3)cn2)c1 [Example 159, N-(5-(2-Fluorophenyl)pyridin-3-yl)-2-((5-(piperidin-1-ylsulfonyl)pyridin-2-yl)amino)isonicotinamide]	1.9	960			3.9
O=C(Nc1cncc(-c2ccccc2F)c1)c1ccnc(Nc2ccc3cnccc3n2)c1 [Example 153, 2-((1,6-Naphthyridin-2-yl)amino)-N-(5-(2-fluorophenyl)pyridin-3-yl)isonicotinamide]	0.45	200	1.5		
CC1(c2ccncc2NC(=O)c2ccnc(Nc3ccc(C(F)(F)F)cn3)c2)OCCO1 [Example 33, N-(4-(2-Methyl-1,3-dioxolan-2-yl)pyridin-3-yl)-2-((5-(trifluoromethyl)pyridin-2-yl)amino)isonicotinamide]	0.18	0.55	0.29		
O=C(Nc1cnc(Cl)cc1C1(C2CC2)OCCO1)c1ccnc(Nc2ccc(C(F)(F)F)cn2)c1 [Example 87, N-(6-Chloro-4-(2-cyclopropyl-1,3-dioxolan-2-yl)pyridin-3-yl)-2-((5-(trifluoromethyl)pyridin-2-yl)amino)isonicotinamide]	0.17	6.6	0.04		
O=C(Nc1cncc2ccccc12)c1ccnc(Nc2ccc(C(F)(F)F)cn2)c1 [Example 64, N-(Isoquinolin-4-yl)-2-((5-(trifluoromethyl)pyridin-2-yl)amino)isonicotinamide]	3.1	610	10		
CC(C)Oc1ccncc1NC(=O)c1ccnc(Nc2ccc(C(F)(F)F)cn2)c1 [Example 19, N-(4-(Isopropoxy)pyridin-3-yl)-2-((5-(trifluoromethyl)pyridin-2-yl)amino)isonicotinamide]	0.55	16	1.6		
COC(=O)c1cccc(Nc2cc(C(=O)Nc3cncc(-c4ccccc4F)c3)ccn2)n1 [Example 149, Methyl 6-((4-((5-(2-fluorophenyl)pyridin-3-yl)carbamoyl)pyridin-2-yl)amino)picolinate]		1700	2.7		
O=C(Nc1cncc(-c2ccccc2F)c1)c1ccnc(Nc2cccc(Cl)n2)c1 [Example 150]		1100	3.5		
